Earlier results, collected in patent US7629004B2, “Composition and process for removing and preventing mildew and fungal growth” (priority 2005, dated 2009).

System: fungi
Conditions: fungal contamination of aircraft interior surfaces

## CC(C)O [isopropyl alcohol]
  Effectiveness of approved military cleaning procedure: ineffective
